From US5847047A, “Antimicrobial composition of a polymer and a peptide forming amphiphilic helices of the magainin-type” (priority 1995, dated 1998)
Where a SMILES comes first, the peptide text is derived from it. Where no end group is shown, it is not given here.

Columns and labels:
E. coli [1] = test: Antimicrobial activity of soluble oligopeptides, microtiter growth inhibition (MIC); assay type: cell-based; settings: soluble peptide, LB broth, 37° C.
Method: (§1) The term "MIC" refers to minimal inhibitory concentration and will be defined as the lowest concentration of either soluble peptide or peptide immobilized on a polymer that results in total kill of bacteria.
(§2) Typically, assays for antimicrobial activity of soluble oligopeptide compositions were carried out in microtiter wells. Each well was charged with 150 μl of LB broth containing cells at a final concentration of between 1×10^6 to 1×10^7 cells/ml and oligopeptide at final concentrations of 1×10^-3 to 1×10^-6 M. It is preferred that the oligopeptides be dissolved in water prior to addition to the assay medium and that cells be inoculated from mid-log phase cultures. […] Cultures showing cell growth inhibition were incubated for an additional 15 hr. at which time a final absorbance reading was taken. FIGS. 4a-d illustrate the cell growth inhibition of E. coli cultures incubated in the presence of various oligopeptides.
(§3) All manipulations with microorganisms involved the application of standard sterile techniques employed in microbiology. All cells were grown at 37° C. Cell concentration was measured by optical density measurements at 600 nm in a Perkin Elmer Model 552 UV/VIS spectrophotometer. The microorganisms used were strains of E. coli. and S. aureus. On the day prior to the assay, an overnight culture was prepared. On the following morning, the stationary phase cells were subcultured and allowed to grow to mid-log phase.
(§4) Each well was charged with LB Broth (150 mcL). The oligopeptide samples were dissolved in water and were added to achieve the appropriate final oligopeptide concentrations (ranging from 1×10^-3 to 1×10^-6 M) Finally, cells suspended in LB medium were added to a final concentration of between 1×10^6 to 1×10^7 cells/mL. The microtiter plate was covered and allowed to gently rotate in an orbital shaker. […] Control samples used for all experiments were: (a) LB broth only=uninoculated control; (b) LB broth only+cells=inoculated control.
In FIGS. 4a-d cell growth inhibition is plotted as molar concentration of antimicrobial peptide as a function of the number of cells killed/ml. FIG. 4a-d illustrates the activity of the core oligopeptide, the N-addition analogue of formula II, the N-addition analogue of formula III, and the N-addition analogue of formula IV, respectively. All cultures were actively growing in log-phase and at a cell concentration of 2.0×10^7 cells/ml.

S. aureus = test: as above; assay type: cell-based; settings: soluble peptide, LB broth, 37° C.
Method: as §1, §2, §3, §4

E. coli [2] = test: Shake flask method for peptides covalently bound to polyamide resin (CFU count); assay type: cell-based; settings: for MIC E. coli: concentration of oligopeptide immobilized on PepsynK resin via EDA linker, shake flask, phosphate buffer pH 7.2, 37° C.; for % Reduction E. coli: immobilized peptide on EDA-PepsynK, determined as described in Example 9
Method: (§5) Occasionally, a shake flask method was employed for insoluble articles. In the shake flask method, 75 mL of 0.6 mM phosphate buffer, pH 7.2 and 0.100 mL of the stock cell culture and the oligopeptide sample were added to a 250 mL polystyrene tissue culture flask. The flasks were incubated in a shaking water bath at 37° C. At specified times (1 hour and 24 hours), an aliquot (0.100 mL) was removed from the shake flask and serial dilutions ranging from 10 to 1000-fold were made to allow the enumeration of cells on agar plates. Each agar plate was inoculated with 0.200 mL of the diluted cell suspension, and the suspension was uniformly spread on the plate. Colony-forming units CFU on the agar plates were counted after 24 hours in an incubator (37° C.). Cells were identified by visual observation and use of a colony counter. Total CFU/mL was determined by correcting the cell count for the dilution factor.
Samples of peptides corresponding to the amino acid sequences SEQ ID NO:8, SEQ ID NO:13, SEQ ID NO:14, SEQ ID NO:15 and SEQ ID NO:1, were covalently linked to the polyamide resin PepSyn K as described in Example 10 and were tested for antimicrobial activity. Five compositions (PEPSYNK-LKP, PEPSYNK-LKPGK, PEPSYNK-LKPG2 K, PEPSYNK-LKPG3 K, and PEPSYNK-KGLKP) were tested over a range of 0 to 5 mg/ml of oligopeptide. Since the covalently linked oligopeptide/polymer compositions were insoluble, the protocol for testing antimicrobial activity was modified from that for the soluble peptide compositions of Example 2. Here, a shake flask method was employed.
as §5, with “In” for “Occasionally, a shake flask method was employed for insoluble articles. In”, “oligopeptide samples, ranging from 0 to 5 mg/ml of oligopeptide” for “oligopeptide sample”, “dilutions were made” for “dilutions”, “1000-fold” for “1000-fold were made”, “enumeration or” for “enumeration of”, “factor. In this manner the minimal inhibitory concentration (MIC) of oligopeptide for covalently linked compositions corresponding to PEPSYNK-LKP, PEPSYNK-LKPGK, PEPSYNK-LKPG2 K, PEPSYNK-LKPG3 K, and PEPSYNK-KGLKP were determined.” for “factor.”
The bactericidal activity for each immobilized peptide was determined as described in Example 9. The structures and the bactericidal activities of the immobilized peptides are shown in Table V. The relative activities against E. coli are consistent with what is known about the soluble peptides. […] The reverse magainin is a much poorer bactericide than its normal sequence.

Method for human erythrocytes: A 5.0% stock cell solution of human erythrocytes in phosphate buffered saline (PBS) was prepared by suspending 2.0 mL packed human erythrocytes in 38 mL of phosphate buffered saline (10 mM sodium phosphate, 120 mM sodium chloride, 2.7 mM potassium chloride, pH 7.5). Samples of the four compositions recited above were added to microfuge tubes containing 0.5 mL of cell solution and 0.5 mL of PBS. Upon addition of sample, the vials were capped, gently homogenized, then allowed to gently shake in an incubator at 37° C. for 30 minutes. The samples were centrifuged to sediment the cells. The supernatants were transferred to cuvettes and the absorbances at 414 nm were read in a Perkin Elmer 552 spectrophotometer. The 0 and 100% hemolysis controls were PBS and PBS +1.0% Triton X-100, respectively.

CC(C)C[C@H](NC(=O)[C@H](CCCCN)NC(=O)[C@H](CC(C)C)NC(=O)[C@H](CC(C)C)NC(=O)[C@H](CCCCN)NC(=O)[C@H](CCCCN)NC(=O)[C@H](CC(C)C)NC(=O)[C@H](CC(C)C)NC(=O)[C@H](CCCCN)NC(=O)[C@H](CC(C)C)NC(=O)[C@H](CC(C)C)NC(=O)[C@H](CCCCN)NC(=O)[C@H](CCCCN)NC(=O)[C@H](CC(C)C)NC(=O)CNC(=O)CNC(=O)CNC(=O)[C@@H](N)CCCCN)C(=O)O [Formula IV, KGGGLKKLLKLLKKLLKL] (H-KGGGLKKLLKLLKKLLKL-OH)
Minimal Inhibitory Concentration E. coli (E. coli [1]): 7.8 µg/mL | Minimal Inhibitory Concentration S. aureus (S. aureus): 15.6 µg/mL

PepsynK-LKPGK: peptide SEQ ID NO:13 covalently linked to polyamide resin PepSyn K via non-cleavable EDA linker (LKLLKKLLKLLKKLGK; also: covalently linked to PepSyn K resin via EDA linker)
MIC E. coli (E. coli [2]): 2213 µg/mL | % Hemolysis at >6 mg/mL (human erythrocytes): 0.7%

PepsynK-KGLKP: peptide SEQ ID NO:1 covalently linked to polyamide resin PepSyn K via non-cleavable EDA linker (KGLKKLLKLLKKLLKL; also: covalently linked to PepSyn K resin via EDA linker)
MIC E. coli (E. coli [2]): 888 µg/mL | % Hemolysis at >6 mg/mL (human erythrocytes): > 0.7%

CC(C)C[C@H](NC(=O)[C@H](CCCCN)NC(=O)[C@H](CC(C)C)NC(=O)[C@H](CC(C)C)NC(=O)[C@H](CCCCN)NC(=O)[C@H](CCCCN)NC(=O)[C@H](CC(C)C)NC(=O)[C@H](CC(C)C)NC(=O)[C@H](CCCCN)NC(=O)[C@H](CC(C)C)NC(=O)[C@H](CC(C)C)NC(=O)[C@H](CCCCN)NC(=O)[C@H](CCCCN)NC(=O)[C@H](CC(C)C)NC(=O)CNC(=O)CNC(=O)[C@@H](N)CCCCN)C(=O)O [Formula III, KGGLKKLLKLLKKLLKL] (H-KGGLKKLLKLLKKLLKL-OH)
Minimal Inhibitory Concentration E. coli (E. coli [1]): 7.8 µg/mL | Minimal Inhibitory Concentration S. aureus (S. aureus): 62.5 µg/mL

CC(C)C[C@H](NC(=O)[C@H](CCCCN)NC(=O)[C@H](CC(C)C)NC(=O)[C@H](CC(C)C)NC(=O)[C@H](CCCCN)NC(=O)[C@H](CCCCN)NC(=O)[C@H](CC(C)C)NC(=O)[C@H](CC(C)C)NC(=O)[C@H](CCCCN)NC(=O)[C@H](CC(C)C)NC(=O)[C@H](CC(C)C)NC(=O)[C@H](CCCCN)NC(=O)[C@H](CCCCN)NC(=O)[C@H](CC(C)C)NC(=O)CNC(=O)[C@@H](N)CCCCN)C(=O)O [Formula II, KGLKKLLKLLKKLLKL] (H-KGLKKLLKLLKKLLKL-OH)
Minimal Inhibitory Concentration E. coli (E. coli [1]): 7.8 µg/mL | Minimal Inhibitory Concentration S. aureus (S. aureus): 15.6 µg/mL

SNMIEGVFAKGFKKASHLFKGIG (SNMIEGVFAKGFKKASHLFKGIG; immobilized on EDA-PepsynK resin) [EDA-PepsynK magainin2, magainin 2 immobilized on EDA-modified PepsynK resin]
% Reduction E. coli (E. coli [2]): 100%

V-F-A-K-G-F-K-K-A-S-H-L-F-K-G-I-G (VFAKGFKKASHLFKGIG; immobilized on EDA-PepsynK resin) [EDA-PepsynK magainin 17-mer deletion, 17-mer deletion peptide of magainin 2 immobilized on EDA-modified PepsynK resin]
% Reduction E. coli (E. coli [2]): 99.3%

CC(C)C[C@H](NC(=O)[C@H](CCCCN)NC(=O)[C@H](CC(C)C)NC(=O)[C@H](CC(C)C)NC(=O)[C@H](CCCCN)NC(=O)[C@H](CCCCN)NC(=O)[C@H](CC(C)C)NC(=O)[C@H](CC(C)C)NC(=O)[C@H](CCCCN)NC(=O)[C@H](CC(C)C)NC(=O)[C@H](CC(C)C)NC(=O)[C@H](CCCCN)NC(=O)[C@H](CCCCN)NC(=O)[C@@H](N)CC(C)C)C(=O)O [Formula I] (H-LKKLLKLLKKLLKL-OH)
Minimal Inhibitory Concentration E. coli (E. coli [1]): 15.6 µg/mL | Minimal Inhibitory Concentration S. aureus (S. aureus): 31.2 µg/mL

PepsynK-LKPG2K: peptide SEQ ID NO:14 covalently linked to polyamide resin PepSyn K via non-cleavable EDA linker (LKLLKKLLKLLKKLGGK; also: covalently linked to PepSyn K resin via EDA linker)
MIC E. coli (E. coli [2]): 1208 µg/mL | % Hemolysis at >6 mg/mL (human erythrocytes): 1.2%

GIGKFLHSAKKFGKAFVGEIMNS (GIGKFLHSAKKFGKAFVGEIMNS; immobilized on EDA-PepsynK resin) [EDA-PepsynK reverse magainin2, reverse magainin 2 peptide immobilized on EDA-modified PepsynK resin]
% Reduction E. coli (E. coli [2]): 95.14%

PepsynK-LKPG3K: peptide SEQ ID NO:15 covalently linked to polyamide resin PepSyn K via non-cleavable EDA linker (LKLLKKLLKLLKKLGGGK; also: covalently linked to PepSyn K resin via EDA linker)
MIC E. coli (E. coli [2]): 938 µg/mL | % Hemolysis at >6 mg/mL (human erythrocytes): 12.7%

Pepsynk-LKP: peptide SEQ ID NO:8 covalently linked to polyamide resin PepSyn K via non-cleavable EDA linker (LKKLLKLLKKLLKL; also: covalently linked to PepSyn K resin via EDA linker)
MIC E. coli (E. coli [2]): 807 µg/mL | % Hemolysis at >6 mg/mL (human erythrocytes): 0.9%
